# Read-outs that look alike come from different tables or passages of the source.
# Experiments:
# Pasteurella multocida = test: Efficacy against Pasteurella multocida infections in mice when administered by injection; type: in vivo, Female Swiss mice; conditions: for responders at 5 mg/kg / responders at 2.5 mg/kg: Pasteurella multocida, ip, read-out: Survival ratio (mice surviving / mice tested) (converted)
# Procedure: The efficacy of the novel compounds against Pasteurella multocida infections in mice when administered by injection was studied.
# Female Swiss mice weighing from 15 to about 20 g. were used. The test compound, 5.0 mg., was weighed out and dissolved in 0.5 ml. of dimethyl sulfoxide, and this solution was added to 9.5 ml. of sodium carboxymethylcellulose suspension. Groups of five mice each were injected intraperitoneally with 0.1 ml. each of the above-prepared test composition. This preparation gave a test rate of 2.5 mg. per kilo of body weight of mouse. The compounds were tested at 1.25, 2.5, or 5.0 per kilogram of body weight of mouse, and the test preparations for the rates of 1.25 and 5.0 mg./kg. were prepared in a similar manner. Immediately after receiving the test compound, the mice were challenged using log10 dilutions of 10^-^4, 10^-^5 and 10^-^6,of a 16 to 20-hour tryptose broth culture of Pasteurella multocida at 0.1 ml. per mouse subcutaneously. Similar groups of nontreated control mice were also challenged, the challenge being administered subcutaneously. The groups of mice were observed daily for mortality and the total mortality in treated groups compared with that which occurred in the nonmedicated control groups. Each test compound is identified by the number of the example describing its preparation.
# In the chart, column 1 lists the test compound; column 2, the dosage of test compound in mg./kg. of mouse body weight; column 3, the dilution of the challenge organism; and column 4, the ratio of the number of mice surviving the test at each dosage and challenge dilution to the number of mice tested at each dosage and challenge dilution, called the survival ratio.
# Pseudomonas sp. = test: In vitro activity against fish bacterial pathogen, standard tube dilution test (MIC); type: cell-based; conditions: tryptose broth, overnight, about 37° C., read-out: minimum inhibitory concentration (MIC)
# Procedure: (§1) The in vitro activity of certain of the novel compounds of this invention against two fish bacterial pathogens was determined using tryptose broth and the standard tube dilution test system. Doubling dilutions ranging from 100.0 to 0.78 mcg./ml. of each of the test compounds were prepared in 5 ml. amounts of tryptose broth. Each tube in the series was then inoculated with one drop from a 24-hour broth culture of either Pseudomonas sp. or a strain of Aeromonas liquefaciens. The tubes were incubated overnight at about 37° C., and the minimum inhibitory concentration (MIC) determined and recorded.
# (§2) Column 1 lists the test compounds identified by their operating example number; column 2 lists the MIC for Pseudomonas sp.; and column 3 lists the MIC for Aeromonas liquefaciens.
# Aeromonas liquefaciens = test: as above; type: cell-based; conditions: Aeromonas hydrophila, read-out: minimum inhibitory concentration (MIC)
# Procedure: as §1, §2
# Treponema hyodysenteriae = test: In vitro activity against Treponema hyodysenteriae on blood agar plates (MIC); type: cell-based; conditions: for MIC: Brachyspira hyodysenteriae, 96 h, read-out: minimum inhibitory concentration (MIC); for inhibition of growth of the treponema: doubling dilutions 100 mcg./ml. to 0.39 mcg./ml.
# Procedure: A number of representative compounds, namely, 5b, 8, and 15b, were tested for their in vitro activity against Treponema hyodysenteriae. The treponema were propagated on blood agar plates. Each plate which was prepared contained 20 ml. of trypticase soy agar (Baltimore Biological Laboratory [BBL]) with 5.0 g./l. of yeast extract (Difco) and 5 percent sterile defibrinated horse blood. The plates were sterile plastic 15 × 100 mm. petri plates. Incubation was carried out at 37° C. for 4 days under anaerobic conditions using the BBL Gas Pak system.
# The concentrations of test compounds in this initial test were prepared in dilutions ranging from 2000 mcg./ml. to 7.8 mcg./ml. The test procedure was carried out in the following manner. Five ml. of a twenty-fold concentration in tryptose broth (Difco) of each filter-sterilized test compound dilution was mixed in a series of flasks containing 90 ml. of melted trypticase soy agar with yeast extract. Five ml. of horse blood was then added per flask. The contents of these flasks were then used to prepare a series of blood agar plates in doubling decreasing dilutions ranging from 100 mcg./ml. to 0.39 mcg./ml.
# The treponema for inoculation of these plates were obtained by adding 3.0 ml. of sterile tryptose broth to the surface of a plate on which the treponema had been propagated. A sterile cotton-tipped swab was used to loosen the treponema from the agar. […] The inoculum was spread so that it covered the surface of each plate, a bent sterile plastic pipette being used for this purpose for each plate. The plates were incubated at about 36° C. for about 4 days and then examined for growth of the treponema. The minimum inhibitory concentration (MIC) of each test compound was the concentration that prevented growth of treponema.
# [1] = 5.0 mg./kg. intraperitoneal, challenge dilution 10^-^4 subcutaneous
# [2] = 5.0 mg./kg. intraperitoneal, challenge dilution 10^-^5 subcutaneous
# [3] = 5.0 mg./kg. intraperitoneal, challenge dilution 10^-^6 subcutaneous
# [4] = 2.5 mg./kg. intraperitoneal, challenge dilution 10^-^4 subcutaneous
# [5] = 2.5 mg./kg. intraperitoneal, challenge dilution 10^-^5 subcutaneous
# [6] = 2.5 mg./kg. intraperitoneal, challenge dilution 10^-^6 subcutaneous
# [7] = Aeromonas liquefaciens, tryptose broth, overnight, about 37° C.
SMILES,responders at 5 mg/kg (Pasteurella multocida; [2]),responders at 5 mg/kg (Pasteurella multocida; [3]),responders at 5 mg/kg (Pasteurella multocida; [1]),also measured
"Cn1c([N+](=O)[O-])cnc1-c1nn(C)c2ncnc(N)c12 [Example 4, 4-Amino-1-methyl-3-(1-methyl-5-nitroimidazol-2-yl)-1H-pyrazolo-[3,4-d]pyrimidine]",50%,50%,–,Survival ratio (mice surviving / mice tested) (Pasteurella multocida; [1]): 4/10
"Cl.Cn1c([N+](=O)[O-])cnc1-c1nn(C)c2ncnc(N)c12 [Example 4a, 4-amino-1-methyl-3-(1-methyl-5-nitroimidazol-2-yl)-1H-pyrazolo[3,4-d]pyrimidine hydrochloride]",–,–,–,Survival ratio (mice surviving / mice tested) (Pasteurella multocida; [1]): 7/10; Survival ratio (mice surviving / mice tested) (Pasteurella multocida; [2]): 7/10; Survival ratio (mice surviving / mice tested) (Pasteurella multocida; [3]): 7/10
"CCCn1cnc2c(c(-c3ncc([N+](=O)[O-])n3C)nn2C)c1=N [Example 5, 4,5-Dihydro-4-imino-1-methyl-3-(1-methyl-5-nitroimidazol-2-yl)-5-propyl-1H-pyrazolo[3,4-d]pyrimidine]",60%,90%,30%,–
"CCCn1cnc2c(c(-c3ncc([N+](=O)[O-])n3C)nn2C)c1=N.O=[N+]([O-])O [Example 5b, 4,5-Dihydro-4-imino-1-methyl-3-(1-methyl-5-nitroimidazol-2-yl)-5-propyl-1H-pyrazolo[3,4-d]pyrimidine mononitrate]",–,–,–,MIC (Pseudomonas sp.): 3.12 µg/mL; MIC (Aeromonas liquefaciens): 25 µg/mL; MIC (Treponema hyodysenteriae): ≤ 1.56 µg/mL; inhibition of growth of the treponema (Treponema hyodysenteriae): inhibited growth of the treponema at each of the levels tested
"Cn1c([N+](=O)[O-])cnc1-c1nn(C)c2ncnc(NCC(=O)O)c12 [Example 6, N-[1-Methyl-3-(1-methyl-5-nitroimidazol-2-yl)-1H-pyrazolo[3,4-d]pyrimidin-4-yl]glycine]",20%,20%,20%,–
"CCn1cnc2c(c(-c3ncc([N+](=O)[O-])n3C)nn2C)c1=N [Example 7, 5-Ethyl-4,5-dihydro-4-imino-1-methyl-3-(1-methyl-5-nitroimidazol-2-yl)-1H-pyrazolo[3,4-d]pyrimidine]",70%,100%,40%,responders at 2.5 mg/kg (Pasteurella multocida; [4]): 20%; responders at 2.5 mg/kg (Pasteurella multocida; [5]): 40%; responders at 2.5 mg/kg (Pasteurella multocida; [6]): 60%
"CCN(CC)CCn1cnc2c(c(-c3ncc([N+](=O)[O-])n3C)nn2C)c1=N [Example 8a, 5-[2-(Diethylamino)ethyl]-4,5-dihydro-4-imino-1-methyl-3-(1-methyl-5-nitroimidazol-2-yl)-1H-pyrazolo[3,4-d]-pyrimidine]",20%,100%,40%,–
"Cn1c([N+](=O)[O-])cnc1-c1nn(C)c2ncn(Cc3ccncc3)c(=N)c12 [Example 8d, 4,5-Dihydro-4-imino-1-methyl-3-(1-methyl-5-nitroimidazol-2-yl)-5-(4-pyridylmethyl)-1H-pyrazolo[3,4-d]pyrimidine]",100%,100%,100%,–
"CN(C)CCn1cnc2c(c(-c3ncc([N+](=O)[O-])n3C)nn2C)c1=N.Cl.Cl [Example 8g, 5-[2-(dimethylamino)-ethyl]-4,5-dihydro-4-imino-1-methyl-3-(1-methyl-5-nitroimidazol-2-yl)-1H-pyrazolo[3,4-d]pyrimidine dihydrochloride]",–,–,–,Survival ratio (mice surviving / mice tested) (Pasteurella multocida; [4]): 2/10; Survival ratio (mice surviving / mice tested) (Pasteurella multocida; [5]): 6/10; Survival ratio (mice surviving / mice tested) (Pasteurella multocida; [6]): 10/10; Survival ratio (mice surviving / mice tested) (Pasteurella multocida; [1]): 7/10; Survival ratio (mice surviving / mice tested) (Pasteurella multocida; [2]): 9/10; Survival ratio (mice surviving / mice tested) (Pasteurella multocida; [3]): 10/10
"Cn1c([N+](=O)[O-])cnc1-c1nn(C)c2ncn(Cc3ccncc3)c(=N)c12 [Example 8k, 4,5-dihydro-4-imino-1-methyl-3-(1-methyl-5-nitroimidazol-2-yl)-5-(4-pyridylmethyl)-1H-pyrazolo[3,4-d]pyrimidine diphosphate]",–,–,–,MIC (Pseudomonas sp.): 0.78 µg/mL; MIC (Aeromonas liquefaciens; [7]): 50 µg/mL
"Cn1c([N+](=O)[O-])cnc1-c1nn(C)c2ncnc(NN)c12 [Example 9, 4-Hydrazino-1-methyl-3-(1-methyl-5-nitroimidazol-2-yl)-1H-pyrazolo[3,4-d]pyrimidine]",80%,90%,100%,–
"Cn1c([N+](=O)[O-])cnc1-c1nn(C)c2ncnc(NN)c12.O=P(O)(O)O [Example 9a, 4-hydrazino-1-methyl-3-(1-methyl-5-nitroimidazol-2-yl)-1H-pyrazolo[3,4-d]-pyrimidine monophosphate]",–,–,–,MIC (Pseudomonas sp.): 0.78 µg/mL; MIC (Aeromonas liquefaciens; [7]): 25 µg/mL
"CC(=O)Nc1ncnc2c1c(-c1ncc([N+](=O)[O-])n1C)nn2C [Example 11, N-[1-Methyl-3-(1-methyl-5-nitroimidazol-2-yl)-1H-pyrazolo[3,4-d]-pyrimidin-4-yl]acetamide]",0%,20%,0%,–
"Cn1c([N+](=O)[O-])cnc1-c1nn(C)c2nc(C(F)(F)F)[nH]c(=O)c12 [Example 12, 1,5-Dihydro-1-methyl-3-(1-methyl-5-nitroimidazol-2-yl)-6-(trifluoromethyl)-4H-pyrazolo[3,4-d]pyrimidin-4-one]",20%,0%,20%,–
"CCOC(Cn1cnc2c(c(-c3ncc([N+](=O)[O-])n3C)nn2C)c1=N)OCC [Example 14, 4-Imino-1-methyl-3-(1-methyl-5-nitroimidazol-2-yl)-1H-pyrazolo-[3,4-d]pyrimidine-5(4H)-acetaldehyde, diethyl acetal]",20%,40%,0%,–
"Cn1c([N+](=O)[O-])cnc1-c1nn(C)c2ncn(CCN3CCOCC3)c(=N)c12 [Example 15b, 4,5-Dihydro-4-imino-1-methyl-3-(1-methyl-5-nitroimidazol-2-yl)-5-(2-morpholinoethyl)-1H-pyrazolo[3,4-d]-pyrimidine diphosphate]",–,–,–,"MIC (Pseudomonas sp.): 1.56 µg/mL; MIC (Aeromonas liquefaciens; [7]): 50 µg/mL; MIC (Treponema hyodysenteriae; blood agar plates, about 36° C., about 4 days): ≤ 1.56 µg/mL; inhibition of growth of the treponema (Treponema hyodysenteriae): inhibited growth of the treponema at each of the levels tested"
